# Experimental data from patent US20110263454A1, “Methods of Identifying Functional Characteristics of Promoters, Transcription Modifying Proteins and Transcription Modulating Agents” (Salk Institute for Biological Studies, priority 2008, published 2011).
# Legend:
# mNPY promoter = assay: NHR-promoter luciferase screen, mNPY promoter; type: cell-based, mouse; details: for Results of assays of transcription factor (+/- ligand) with mNPY: Table 6d, luciferase activity relative to control (control = 1.00); for Luc. act., normalized to lacZ / Normalized Luc. act., normalized to control: mNPY promoter, HR component with or without ligand; for Normalized Luc. act., normalized to control: relative to control
# Description: (§1) The use, feasibility, and reproducibility of the functional NHR-promoter screen in a 48-well format have been tested validated. Briefly, there were co-expressed 50 ng of each NHR/NHR homodimer or NHR/RXR heterodimer with 100 ng promoter/luciferase construct and 50 ng of LacZ (as a control for transfection efficiency) in CV-1 cells using Fugene HD (Roche) as a transfection reagent (alternatively or additionally, a CMV-YFP construct can be used as a transfection control). Each of the nuclear hormone receptors that were used in these experiments was cloned into a pcDNA3.1 vector and comprised a C-terminally linked V5H6 tag. Twenty-four hours after transfection, appropriate ligands were added, where applicable, (see Table 5 for various ligands and concentrations and after 48 hrs, samples were assayed for luciferase and LacZ activity. To measure for luciferase activity 15 ul of sample was added to 30 ul of luciferase buffer (20 mM tricine, 1.07 mM MgCarbonate, 2.67 mM MgSulfate, 0.1 mM Naz-EDTA, 5 mM DTT, 5 mM ATP, 0.15 mg/ml CoA, 0.5 mM Luciferin), mixed briefly, and run in a Perkin Elmer Victor 5 luminometer. Thus, the functional NHR-promoter screen was used to observe the transcriptional activity of 29 promoters from various physiological pathways including inflammation, lipid and sugar metabolism, cholesterol transport, xenobiotic metabolism, and circadian rhythm.
# (§2) The promoters that facilitate transcription of the indicated gene products that were tested using the protocols described herein are listed in the first row of the table. The nuclear hormone receptors and, where applicable, ligands that were assayed for their transcriptional effects on the promoters are listed in the first column of the table. The data represent the luciferase activity of each sample normalized to both the lacZ activity of that sample and to a control, e.g., no NHR or ligand, as customary in the art. As described previously, these normalizations allow the transcriptional activity of each reporter cell to be compared to other samples.
# (§3) Tables 7-40 show the transcriptional effects of the hormone receptors, and, where applicable, ligands (orphan receptors are screened without ligand), on each individual promoter. […] The control data of each table are shown in their last rows.
# mCAR promoter = assay: NHR-promoter luciferase screen, mCAR promoter; type: cell-based, mouse; details: for luciferase activity normalized to lacZ activity and to a control, mCAR: mCAR promoter-luciferase, CV-1 cells, NHR +/- ligand, control = 1.00; for Luc. act., normalized to lacZ / Normalized Luc. act., normalized to control: mCAR promoter, HR/ligand component
# Description: as §1, §2, §3
# mDio1 promoter = assay: NHR-promoter luciferase screen, mDio1 promoter; type: cell-based, mouse; details: for Luc. act., normalized to lacZ / Normalized Luc. act., normalized to control: Dio1, HR component without or with its ligand; for mDio1 promoter reporter activity: transcription factor +/- ligand, control = 1.00
# Description: as §1, §2, §3
# mGhrelin promoter = assay: NHR-promoter luciferase screen, mGhrelin promoter; type: cell-based, mouse; details: for Luc. act., normalized to lacZ / Normalized Luc. act., normalized to control: Table 8, mGhrelin; for Results of assays of transcription factor (+/- ligand) with mGhrelin: Table 6d, luciferase activity relative to control (control = 1.00); for luciferase/LacZ, mGhrelin (selected results): mGhrelin promoter-luciferase, NHR +/- ligand, control = 1.0
# Description: as §1, §2, §3
# hCAR promoter = assay: NHR-promoter luciferase screen, hCAR promoter; type: cell-based, human; details: for luciferase activity normalized to lacZ activity and to a control, hCAR: hCAR promoter-luciferase, CV-1 cells, NHR +/- ligand, control = 1.00; for Luc. act., normalized to lacZ / Normalized Luc. act., normalized to control: hCAR promoter, HR/ligand component
# Description: as §1, §2, §3
Substance,Results of assays of transcription factor (+/- ligand) with mNPY (mNPY promoter),"Luc. act., normalized to lacZ (mNPY promoter)","Normalized Luc. act., normalized to control (mNPY promoter)","luciferase activity normalized to lacZ activity and to a control, mCAR (mCAR promoter)","Luc. act., normalized to lacZ (mCAR promoter)","Normalized Luc. act., normalized to control (mCAR promoter)","Luc. act., normalized to lacZ (mDio1 promoter)","Normalized Luc. act., normalized to control (mDio1 promoter)",mDio1 promoter reporter activity (mDio1 promoter),"Luc. act., normalized to lacZ (mGhrelin promoter)","Normalized Luc. act., normalized to control (mGhrelin promoter)",Results of assays of transcription factor (+/- ligand) with mGhrelin (mGhrelin promoter),"luciferase activity normalized to lacZ activity and to a control, hCAR (hCAR promoter)","Luc. act., normalized to lacZ (hCAR promoter)","Normalized Luc. act., normalized to control (hCAR promoter)","luciferase/LacZ, mGhrelin (selected results) (mGhrelin promoter)"
"PNR: Photoreceptor-specific Nuclear Receptor (NR2E3), cDNA driver",2.00,168.3,2.0,0.55,21.0,0.6,6.4,1.4,1.44,32.4,0.6,0.62,0.38,11.9,0.4,
"NR4a1: NR4a1 (NR4A1; NUR77), nuclear hormone receptor cDNA driver",0.92,77.0,0.9,0.94,35.66,0.9,10.9,2.4,2.45,54.5,1.0,1.04,0.97,30.7,1.0,1.0
"TLX: Tailless (homolog of drosophila) (NR2E1), cDNA driver",1.11,93.5,1.1,0.39,15.0,0.4,8.4,1.9,1.88,86.6,1.7,1.66,0.56,17.6,0.6,
"PPARg: Peroxisome proliferator activated receptor γ (NR1C3), cDNA driver",1.14,95.6,1.1,1.25,47.7,1.3,9.9,2.2,2.23,93.9,1.8,1.80,1.58,49.8,1.6,1.8
"GR: Glucocorticoid Receptor (NR3C1), cDNA driver",0.57,47.8,0.6,0.23,8.74,0.2,2.5,0.6,0.55,14.3,0.3,0.27,0.36,11.25,0.4,0.3
"AR: Androsterone Receptor (NR3C4), cDNA driver",1.12,93.8,1.1,0.81,30.88,0.8,6.4,1.4,1.43,39.2,0.8,0.75,0.89,28.0,0.9,
"SF-1: Steroidogenic Factor 1 (NR5A1, SF1), cDNA driver",2.12,177.6,2.1,2.43,92.6,2.4,19.8,4.5,4.45,273.2,5.2,5.23,3.60,113.6,3.6,
"VDR: Vitamin D Receptor (NR1I1), cDNA driver",0.79,66.7,0.8,0.69,26.5,0.7,7.6,1.7,1.71,76.6,1.5,1.47,0.83,26.1,0.8,
"RXRa: Retinoic X Receptor α (NR2B1), cDNA driver",0.95,80.0,1.0,0.97,36.9,1.0,5.5,1.2,1.24,57.4,1.1,1.10,0.78,24.7,0.8,
"LXRa: Liver X Receptor α (NR1H3), cDNA driver",0.67,56.2,0.7,0.78,29.5,0.8,4.7,1.1,1.06,56.7,1.1,1.08,1.87,58.9,1.9,
"PPARa: Peroxisome proliferator activated receptor α (NR1C1), cDNA driver",0.62,51.7,0.6,0.88,33.6,0.9,4.7,1.1,1.06,56.2,1.1,1.07,1.39,43.9,1.4,
"ERR1: Estrogen Related Receptor α (NR3B1, ERRa), cDNA driver",0.83,69.6,0.8,1.07,40.9,1.1,6.2,1.4,1.39,81.4,1.6,1.56,0.82,25.8,0.8,
